Data from article PMC12527934 (Nature, 2025).
*1 amine or outer side, *2 acyl side, *3 side chain or, on linkers, in order; H or OH if unused. Where a SMILES comes first, the peptide text is derived from it. Bridges are numbered along the chain shown (N, C = ends). [ ]: non-standard residue; d: D form. The star is where a group is joined. X4 = CN([C@@H](Cc1cc(Cl)ccc1-c1cnn(C)c1)C(=O)[*:2])[*:1]; X5 = CN([C@@H](Cc1cc(Cl)nn1-c1ccccc1)C(=O)[*:2])[*:1]; cBuCO(3,3-F2-1-CF3) = O=C(C1(C(F)(F)F)CC(F)(F)C1)*; NMePhe(2,5-Cl2) = CN[C@@H](Cc1cc(Cl)ccc1Cl)C(=O)O; X2 = CCCN([C@@H](Cc1cc(Cl)ccc1Cl)C(=O)[*:2])[*:1]; Nle(6-morpholino) = N[C@@H](CCCCN1CCOCC1)C(=O)O; X6 = CN([C@H](Cc1cc(Cl)ccc1Cl)C(=O)[*:2])[*:1]; Pro(trans-4-F) = O=C(O)[C@@H]1C[C@@H](F)CN1; dPro(trans-4-F) = O=C(O)[C@H]1C[C@H](F)CN1; X3 = O=C([C@@H](c1cccnc1)C1CCCCC1)*; Gly(cPr) = N[C@H](C(=O)O)C1CC1; X1 = C[C@@](O)(C(=O)*)C(F)(F)F; Cba = N[C@@H](CC1CCC1)C(=O)O; NMeK = CN[C@@H](CCCCN)C(=O)O; dCba = N[C@H](CC1CCC1)C(=O)O; dNMeK = CN[C@H](CCCCN)C(=O)O; dNva = CCC[C@@H](N)C(=O)O; Ac3c = NC1(C(=O)O)CC1; Aib = CC(C)(N)C(=O)O

Tests used:
NCI-H1048 cells [1] = experiment: Cell-count dose–response assay; assay type: cell-based, human; settings: for activity in proliferation, apoptosis and cell cycle assays: NCI-H1048
[2] = system: p-KNL1 in NCI-H1048 cells; experiment: Immunoblot of p-KNL1; assay type: cell-based, human
NCI-H69 xenografts = experiment: NCI-H69 cell line xenograft efficacy study; assay type: in vivo, mouse; settings: 100 mg per kg daily i.v. 14 days
NCI-H1048 xenografts = experiment: NCI-H1048 cell line xenograft efficacy study; assay type: in vivo, mouse; settings: 100 mg per kg daily i.v. 14 days
[3] = Body weight, NCI-H69 xenograft study; assay type: in vivo, mouse; settings: 100 mg per kg daily 14 days
[4] = Body weight, NCI-H1048 xenograft study; assay type: in vivo, mouse; settings: 100 mg per kg daily 14 days
NCI-H1048 cells [5] = experiment: Live-cell imaging of mitosis; assay type: cell-based, human; settings: NCI-H1048 GFP–H2B, 20 nM
RPE1 cells = experiment: Cell-count dose–response assay; assay type: cell-based, human; settings: RPE1, even at high doses
46 human SCLC cell lines = experiment: Cell Titer Glo proliferation assay, panel of 46 SCLC cell lines; assay type: cell-based; settings: 4–8 days
[6] = system: human peripheral blood CD34+ cells; assay type: cell-based; settings: CD34+ haematopoietic stem and progenitor cells, even at high doses
NCI-H69 cells = experiment: Nocodazole synchronization, propidium iodide FACS; assay type: cell-based, human; settings: NCI-H69, 60 ng ml−1, overnight

CC(C)C[C@H]1NC(=O)[C@H](N(C)C(=O)[C@@H](CC2CCC2)NC(=O)[C@H]2C[C@H](F)CN2C(=O)C2(C(F)(F)F)CC(F)(F)C2)CCCCNC(=O)C2(CC2)NC(=O)[C@@H](Cc2cc(Cl)ccc2Cl)N(C)C1=O [CIRc-005] ({cBuCO(3,3-F2-1-CF3)}-[dPro(trans-4-F)][dCba][dNMeK][dL][X6][Ac3c]; lactam 3-C)
effect on cellular proliferation (NCI-H1048 cells [1]; NCI-H1048, 200 nM): had no effect on cellular proliferation

CCC[C@H]1NC(=O)[C@H](Cc2cc(Cl)ccc2-c2cnn(C)c2)N(C)C(=O)[C@H](CC(C)C)NC(=O)[C@@H](N(C)C(=O)[C@H](CCCCN2CCOCC2)NC(=O)[C@@H](c2cccnc2)C2CCCCC2)CCCCNC1=O [CIRc-018] (X3-[Nle(6-morpholino)][NMeK]L[X4][dNva]; lactam 2-C)
activity in proliferation, apoptosis and cell cycle assays (NCI-H1048 cells [1]): lacked activity

COc1ccc(Oc2cc(NCCC(F)(F)F)c3ncc(-c4ccc(C(=O)NC5CC5)c(C)c4)n3n2)c(F)c1F [BAY-1217389]
KNL1 phosphorylation and proliferation ([2]; 3 nM, NCI-H1048): blocked KNL1 phosphorylation without affecting proliferation

CCCN1C(=O)[C@H](CC(C)C)NC(=O)[C@@H](N(C)C(=O)[C@H](CC2CCC2)NC(=O)[C@@H]2C[C@@H](F)CN2C(=O)[C@@](C)(O)C(F)(F)F)CCCCNC(=O)C2(CC2)NC(=O)[C@@H]1Cc1cc(Cl)ccc1Cl [CIRc-028] (X1-[Pro(trans-4-F)][Cba][NMeK]L[X2][Ac3c]; lactam 3-C)
tumour response (NCI-H69 xenografts): induced tumour regressions | tumour response (NCI-H1048 xenografts): substantially inhibited growth | tolerability, body weight [3]: well tolerated without weight loss | tolerability, body weight [4]: well tolerated without weight loss

CC(C)C[C@@H]1NC(=O)[C@@H](N(C)C(=O)[C@H](CC2CCC2)NC(=O)[C@@H]2C[C@@H](F)CN2C(=O)C2(C(F)(F)F)CC(F)(F)C2)CCCCNC(=O)C2(CC2)NC(=O)[C@H](Cc2cc(Cl)ccc2Cl)N(C)C1=O [CIRc-004] ({cBuCO(3,3-F2-1-CF3)}-[Pro(trans-4-F)][Cba][NMeK]L[NMePhe(2,5-Cl2)][Ac3c]; lactam 3-C)
anaphase initiation (live-cell imaging) (NCI-H1048 cells [5]): blocked anaphase initiation | sensitivity of normal cells (mitotic arrest, apoptosis) (RPE1 cells): insensitive | sensitivity of 46 SCLC cell lines in anti-proliferation assays (46 human SCLC cell lines): Nearly all lines were highly sensitive | sensitivity of normal cells (mitotic arrest, apoptosis) [6]: insensitive

CC(C)C[C@@H]1NC(=O)[C@@H](N(C)C(=O)[C@@H](NC(=O)[C@@H]2C[C@@H](F)CN2C(=O)C2(C(F)(F)F)CC(F)(F)C2)C2CC2)CCCCNC(=O)C(C)(C)NC(=O)[C@H](Cc2cc(Cl)nn2-c2ccccc2)N(C)C1=O [CIRc-019] ({cBuCO(3,3-F2-1-CF3)}-[Pro(trans-4-F)][Gly(cPr)][NMeK]L[X5][Aib]; lactam 3-C)
activity in proliferation, apoptosis and cell cycle assays (NCI-H1048 cells [1]): lacked activity

COC(=O)Nc1nc2ccc(C(=O)c3cccs3)cc2[nH]1 [nocodazole]
cells in mitotic arrest (NCI-H69 cells): around 90%

COCc1cc(C(=O)Nc2cc([C@H]3CC[C@@H](OC(=O)NC(C)C)C3)[nH]n2)n(C)n1 [PF-07104091]
SAC activation ([2]; NCI-H1048 cells, 24 h): did not activate the SAC
